Patent publication US20260232753A1, “COMPOSITION FOR TREATING MACULAR DEGENERATION COMPRISING NOVEL PEPTIDE” (EYEBIOKOREA, INC., priority 2021, published 2026)
Converted amounts (≈) assume the structure as drawn. Where a SMILES comes first, the peptide text is derived from it. Where no end group is shown, it is not given here. [ ]: non-standard residue; d: D form. Hyp = O=C(O)[C@@H]1C[C@@H](O)CN1; Tle = CC(C)(C)[C@H](N)C(=O)O; Aib = CC(C)(N)C(=O)O

Columns and labels:
[1] = system: choroidal neovascularization (CNV); assay: Inhibition of choroidal neovascularization: fluorescence value (CTF) at the CNV site by FFA, laser-induced CNV model, intravitreal injection; type: in vivo, C57BL/6 mice; details: laser-induced CNV; 1 μL intravitreal, peptide 10 mg/mL or aflibercept 20 mg/mL; ten days after administration; lower CTF = less CNV
Excerpt: (§1) The CNV animal model used in the present invention is a mouse model in which lesions are induced by irradiating a laser to the choroid of C57BL/6 mice using a laser slit system. The laser-induced CNV model, first described in 1979, uses photocoagulation to disturb Bruch's membrane to induce the growth of choroidal neovascularization into the retina area, and it is similar in development to neovascular disease in the human retina, that is, wet macular degeneration (wet AMD), in that neovascularity arises from the choroid. In addition, the laser-induced CNV model was successful in predicting the clinical efficacy of anti-vascular endothelial growth factor (VEGF) treatment for neovascular AMD, and is an animal model used in the development stage of existing therapeutic agents (Gong Y, Li J, Sun Y, Fu Z, Liu C H, Evans L, et al. (2015) Optimization of an Image-Guided Laser-Induced Choroidal Neovascularization Model in Mice. PLOS ONE 10 (7)).
(§2) In order to evaluate the efficacy of the peptide of the present invention to inhibit the choroidal neovascularization (CNV), an experiment was performed as follows.
(§3) The eyes of 7-8 week old C57BL/6 mice were instilled with a mydriatic agent to dilate the pupils, and the mice were anesthetized by intraperitoneal injection of ketamine (50 mg/kg) and rompun (23.32 mg/kg). A slit-lamp laser injection system was used to irradiate the laser to the choroid of each eye of the mouse four times in the 12 o'clock, 3 o'clock, 6 o'clock, and 9 o'clock directions. At this time, the laser irradiation conditions were 532 nm, 80 msec, and 240 mW. Immediately after laser irradiation, 1 μL of each peptide at a concentration of 10 mg/mL or aflibercept at a concentration of 20 mg/mL, which was dissolved in PBS, was injected into the vitreous body using a syringe. Ten days after drug administration, the mice were anesthetized, and 2% fluorescein was administered to the abdominal cavity to stain blood vessels. The retina was photographed 2 to 3 minutes after fluorescein administration. The size and fluorescence value of CNV lesions induced by laser were measured using the ImageJ program, and in order to reduce the differences between subjects, the CTF (corrected total fluorescence) was calculated by removing the background, and the values of each group were compared. The results of all tests are expressed as mean±standard deviation, and significance was verified using one-way ANOVA and Kruskal-wallis test.

[2] = system: choroidal neovascularization (CNV); assay: Inhibition of choroidal neovascularization: optical coherence tomography, size of CNV lesion, intravitreal injection; type: in vivo, C57BL/6 mice; details: laser-induced CNV; 1 μL intravitreal, peptide 10 mg/mL or aflibercept 20 mg/mL; ten days after administration; OCT
Excerpt: as §1, §2
as §3, with “and” for “and 2% fluorescein was administered to”, “the” for “the abdominal cavity to stain blood vessels. The retina was photographed 2 to 3 minutes after fluorescein administration. The size and fluorescence value of”, “calculated and expressed as μm^2” for “measured”, “program” for “program, and in order to reduce the differences between subjects, the CTF (corrected total fluorescence) was calculated”, “transmitting an OCT beam for” for “removing the background, and the values of”, “burn.” for “group were compared.”

neovascularity = assay: Eye drop efficacy to inhibit neovascularity in Vldlr knockout mice: lesion area by retinal fluorescence imaging; type: in vivo
Excerpt: A symptom of neovascular macular degeneration is retinal angiomatous proliferation (RAP), which occurs in approximately 12 to 15% of patients who are newly diagnosed with neovascular macular degeneration. Meanwhile, Vldlr is known to be one of the functional candidate genes for human macular degeneration, and mice in which Vldlr is knocked out (−/−) show retinal hemangioma proliferation along with subretinal neovascularization. Therefore, in order to evaluate the neovascularity inhibitory efficacy of the eye drop comprising the peptide of Example 43 (002-175), which was confirmed to be an excellent peptide through the above test examples, in Vldlr knockout (−/−) mice, an animal model of neovascular macular degeneration disease, an experiment was performed as follows.
From 6 weeks of age (P42) to 14 weeks of age (P98), Vldlr^−/− mice were instilled with the eye drop comprising the peptide of Example 43 (002-175) twice a day, and as a positive control group, aflibercept at a concentration of 20 mg/mL was intraocularly injected once, 1 μL each, into the vitreous body of 6 week old mice. The eyes of the mice were instilled with a mydriatic agent to dilate the pupils, and then the mice were anesthetized by intraperitoneal injection of ketamine (50 mg/kg) and rompun (23.32 mg/kg), and 2% fluorescein was injected to the abdominal cavity to stain blood vessels. Images were acquired through retinal fluorescence imaging, and the lesion area was calculated using the ImageJ program, and the results of the experiment are shown in FIGS. 10 and 11.

[3] = system: choroidal neovascularization (CNV); assay: Inhibition of choroidal neovascularization: electroretinography, b-wave amplitude as indicator of retinal function; type: in vivo, C57BL/6 mice; details: laser-induced CNV; 1 μL intravitreal, peptide 10 mg/mL or aflibercept 20 mg/mL; single white light 0.9 cd·sec/m^2
Excerpt: as §1, §2
The eyes of 7-8 week old C57BL/6 mice were instilled with a mydriatic agent to dilate the pupils, and the mice were anesthetized by intraperitoneal injection of ketamine (50 mg/kg) and rompun (23.32 mg/kg). A slit-lamp laser injection system was used to irradiate the laser to the choroid of each eye of the mouse four times in the 12 o'clock, 3 o'clock, 6 o'clock, and 9 o'clock directions. At this time, the laser irradiation conditions were 532 nm, 80 msec, and 240 mW. Immediately after laser irradiation, 1 μL of each peptide at a concentration of 10 mg/mL or aflibercept at a concentration of 20 mg/mL, which was dissolved in PBS, was injected into the vitreous body using a syringe. For electroretinogram analysis, dark adaptation was performed for more than 12 hours. The mice were subjected to mydriasis in a dark room and anesthetized, and then electroretinography was performed by contacting the ground electrode to the tail, the reference electrode to the head, and the corneal electrode to the cornea. The response values were obtained by stimulating the retina with a single white light of 0.9 cd·sec/m^2 flash intensity, and the amplitude, which is determined from the trough of the a-wave to the peak of the b-wave, was measured and evaluated as an indicator of retinal function. The results of all tests are expressed as mean #standard deviation, and significance was verified using one-way ANOVA and Kruskal-wallis test.

[4] = Solubility of the peptide in water (Korean Pharmacopoeia method); type: physicochemical; details: 20±5° C.; for solubility: within 30 minutes
Description: In order to evaluate the solubility of the peptide of the present invention, an experiment was performed as follows.
The solubility test was conducted based on the Korean Pharmacopoeia method, and the solubility was determined as the degree to which 0.1 g of peptide was dissolved within 30 minutes when added to 10 mL of water and shaken vigorously for 30 seconds every 5 minutes at 20±5° C.

[5] = Stability of the peptide: content analysis by HPLC in aqueous solution under harsh conditions; type: physicochemical
Description: In order to evaluate the stability of the peptide of the present invention, an experiment was performed as follows.
The stability of the peptide was confirmed through content analysis in an aqueous solution at 40° C., 75% humidity, and harsh conditions, and was analyzed using HPLC under the following conditions. • Analysis column: C18 (4.6 Y 250 mm, 5 μm, YMC Hydrosphere) • Analysis wavelength: ultraviolet absorption spectrophotometer (210 nm) • Injection volume/Flow rate: 10 μL/0.8 mL/min • Column temperature: 45° C. • Mobile phase: 0.1 M phosphate buffer methanol mixture (83:17)

Row | solubility [4] [mg/mL] | Compound | CTF (corrected total fluorescence) value [1] | Size of lesion [2] | b-wave amplitude [3] [μV] | further results
1 |  | aflibercept [reference compound] | + (+: 300,000 to 800,000) | 5,437 μm^2 | 398 | Size of the lesion (area of new blood vessels), course during administration (in words) (neovascularity; P42 to P98, for aflibercept from the 2nd week): gradually increased again; Size of the lesion (area of new blood vessels), 1 week after administration (in words) (neovascularity; P49): reduced rapidly; Size of the lesion (area of new blood vessels), after 8 weeks (in words) (neovascularity; P98): reached a size similar to that of the group administered with vehicle
2 | ≥ 330 | CC(C)C[C@H](NC(=O)CNC(=O)[C@H](CCC(=O)O)NC(=O)[C@H](CCC(N)=O)NC(=O)CNC(=O)[C@@H]1C[C@@H](O)CN1)C(=O)N[C@@H](C)C(=O)O [Example 40, Hyp-Gly-Gln-Glu-Gly-Leu-Ala] (H-[Hyp]GQEGLA-OH; N-terminus and C-terminus assumed) |  |  |  | 
3 |  | Hyp-Gly-Gln-Glu-Val ([Hyp]GQEV) [Example 37] | + (+: 300,000 to 800,000) | 5,775 μm^2 | 400 | 
4 |  | Hyp-Gly-Gln-Glu-Leu-Leu-Ala ([Hyp]GQELLA) [Example 41] | + (+: 300,000 to 800,000) | 4,960 μm^2 | 510 | Content after 7 days ([5]; 40° C., 75% humidity, 7 days): 97.555%; Decrease rate ([5]; 40° C., 75% humidity, after 7 days): 0.600%; Initial content ([5]; HPLC, initial): 98.155%
5 |  | Hyp-Gly-Gln-Glu-Val-Leu-Ala ([Hyp]GQEVLA) [Example 42] | + (+: 300,000 to 800,000) | 6,102 μm^2 | 380 | 
6 | ≥ 500 | CC(C)C[C@H](NC(=O)C(C)(C)NC(=O)[C@H](CCC(=O)O)NC(=O)[C@H](CCC(N)=O)NC(=O)CNC(=O)[C@@H]1C[C@@H](O)CN1)C(=O)N[C@@H](C)C(=O)O [Example 43, Hyp-Gly-Gln-Glu-Aib-Leu-Ala] (H-[Hyp]GQE[Aib]LA-OH; N-terminus and C-terminus assumed) |  |  |  | Stability (in words) ([5]; 40° C., 75% humidity, 7 days): most excellent stability; Solubility (in words) [4]: most excellent solubility
7 | 100 (≈ 135 mM) | CC(C)C[C@H](NC(=O)[C@@H](NC(=O)[C@H](CCC(=O)O)NC(=O)[C@H](CCC(N)=O)NC(=O)CNC(=O)[C@@H]1C[C@@H](O)CN1)C(C)(C)C)C(=O)N[C@@H](C)C(=O)O [Example 44, Hyp-Gly-Gln-Glu-tert-Leu-Leu-Ala] (H-[Hyp]GQE[Tle]LA-OH; N-terminus and C-terminus assumed) |  |  |  | 
